In ChEMBL document CHEMBL5620351, “Advancing beyond reverse transcriptase inhibitors: The new era of hepatitis B polymerase inhibitors” (Eur J Med Chem, 2023):
One block for each molecule: values may come before it.

Key:
Hepatitis B virus [1] = assay: Antiviral activity against HBV infected in human HepDES19 cells assessed as reduction in HBV replication; type: functional, organism-based
Hepatitis B virus [2] = assay: Antiviral activity against HBV infected in human HepDES19 cells assessed as inhibition of HBV replication by qPCR analysis; type: functional, organism-based
[3] = Cytotoxicity against human HEK293 cells assessed as reduction in cell viability incubated for 1 hr by MTS assay; type: toxicity, cell-based
[4] = Cytotoxicity against human HepDES19 cells assessed as reduction in cell viability incubated for 1 hr by MTS assay; type: functional
Hepatitis B virus [5] = assay: Antiviral activity against HBV infected in human HepDES19 cells assessed as inhibition of extracellular HBV DNA by qPCR analysis; type: functional, organism-based
[6] = Cytotoxicity against human LX2 cells assessed as reduction in cell viability incubated for 1 hr by MTS assay; type: toxicity, cell-based; conditions: LX-2 cells
Hepatitis B virus [7] = assay: Antiviral activity against HBV infected in human HepG2 2.2.15 cells assessed as reduction on HBsAg level incubated for 5 days; type: functional; design: concentration or dose not given beside the values; conditions: time 5 day
HepG2 [8] = assay: Cytotoxicity against human HepG2 cells assessed as cell viability incubated for 12 days by WST-1 assay; type: functional; conditions: HepG2, 288 h, time 12 day
Huh-7 [9] = assay: Cytotoxicity against human Huh-7 cells assessed as reduction in cell viability by Neutral Red staining based assay; type: functional
Huh-7 [10] = assay: Cytotoxicity against human Huh-7 cells assessed as reduction in cell viability by LDH release assay; type: functional
Hepatitis B virus [11] = assay: Antiviral activity against adefovir-resistant HBV infected in human HepG2 cells assessed as reduction in of intracellular HBV DNA incubated for 5 days by Southern blotting analysis; type: functional, organism-based; conditions: HepG2, 120 h
Hepatitis B virus [12] = assay: Antiviral activity against lamivudine resistant HBV infected in human HepG2 cells assessed as reduction in of intracellular HBV DNA incubated for 5 days by Southern blotting analysis; type: functional, organism-based; conditions: HepG2, 120 h
Hepatitis B virus [13] = assay: Antiviral activity against HBV infected in human HePAD38 cells assessed as reduction in of intracellular HBV DNA incubated for 5 days by Southern blotting analysis; type: functional, organism-based; conditions: HePAD38, 120 h
HepG2 [14] = assay: Cytotoxicity against human HepG2 cells assessed as reduction in cell viability in presence of lamivudine by MTS assay; type: functional
HepG2 [15] = assay: Cytotoxicity against human HepG2 cells assessed as reduction in cell viability by MTS assay; type: functional
Hepatitis B virus [16] = assay: Antiviral activity against HBV transfected in human HB611 cells; type: functional, organism-based
[17] = Inhibition of HBV RNA polymerase; design: species or system Hepatitis B virus
Hepatitis B virus [18] = assay: Antiviral activity against HBV transfected in human HB611 cells assessed as reduction of HBV DNA replication incubated for 5 days by q-PCR analysis; type: functional, organism-based; conditions: HB611, 120 h
[19] = Cytotoxicity against human HB611 cells assessed as reduction in cell viability incubated for 6 to 9 days by celltiter-glo assay; type: functional; conditions: time 6-9 day
Hepatitis B virus [20] = assay: Antiviral activity against HBV infected in human HepG2.2.15.7 cells assessed as reduction in HBV DNA replication by TR-PCR analysis; type: functional, organism-based
Hepatitis B virus [21] = assay: Antiviral activity against HBV infected in human Hep38.7-TeT cells assessed as inhibition of extracellular HBV DNA by real-time qPCR analysis; type: functional, organism-based
[22] = Cytotoxicity against human HB611 cells assessed as reduction in cell viability incubated for 3 days by celltiter glo assay; type: functional; conditions: HB611, 72 h, time 3 day
Hepatitis B virus [23] = assay: Antiviral activity against HBV infected in human HepG2-hNTCP cells assessed as reduction in HBV DNA replication by qRT-PCR analysis; type: functional, organism-based
[24] = Cytotoxicity against human HepG2-hNTCP cells assessed as reduction in cell viability incubated for 3 days by celltiter glo assay; type: functional; conditions: 72 h, time 3 day

Structure (SMILES): CC(=NOCc1ccccc1N)c1c(C)cc(=O)n(O)c1O
EC50 (Hepatitis B virus [1]): 110 nM

Structure (SMILES): O=C1OCc2cc(O)c(=O)c(O)cc21
CC50 at 1 h [3]: > 100000 nM
CC50 [4]: > 100000 nM
EC50 (Hepatitis B virus [5]): 600 nM
CC50 at 1 h [6]: > 100000 nM

Structure (SMILES): COC(=O)c1c2c(cc(O)c(=O)c1O)COC2=O
CC50 at 1 h [3]: > 100000 nM
CC50 [4]: > 77000 nM
EC50 (Hepatitis B virus [5]): 500 nM

Structure (SMILES): N#C/C=C1/C=C[C@@H](O)C[C@H]1O[C@@H]1O[C@H](CO)[C@@H](O)[C@H](O)[C@H]1O
Activity (Hepatitis B virus [7]): 62%

Structure (SMILES): O=C(/C=C/c1ccc(O)c(O)c1)NCCc1ccc(O)c(O)c1
CC50 (HepG2 [8]): 229000 nM

Structure (SMILES): Nc1nc(O)c2ncn([C@H]3CC[C@@H](CO)O3)c2n1
CC50 (Huh-7 [9]): 26000 nM
CC50 (Huh-7 [10]): 97000 nM
EC50 (Hepatitis B virus [11]): 660 nM
EC50 (Hepatitis B virus [12]): 890 nM
EC50 (Hepatitis B virus [13]): 300 nM

Structure (SMILES): C/C=C(\C)C(=O)O[C@H]1C[C@@H](OC(C)=O)[C@@]2(C(=O)OC)CO[C@H]3[C@@H](O)[C@@](C)([C@]45O[C@@]4(C)[C@H]4C[C@@H]5O[C@@H]5OC=C[C@@]54O)[C@H]4[C@]1(CO[C@]4(O)C(=O)OC)[C@@H]32 [AZADIRACTIN]
Activity (Hepatitis B virus [7]): 62%

Structure (SMILES): CC(=O)O[C@H]1C(=O)[C@@]2(C)[C@H]([C@H](OC(=O)c3ccccc3)[C@]3(O)C[C@H](O)C(C)=C1C3(C)C)[C@]1(OC(C)=O)CO[C@@H]1C[C@@H]2O [BACCATIN III]
Activity (Hepatitis B virus [7]): 62%

Structure (SMILES): CC(C)c1ccc(O)c(=O)c(O)c1 [BETA-THUJAPLICINOL]
CC50 (HepG2 [14]): 48000 nM
CC50 (HepG2 [15]): 47000 nM

Structure (SMILES): CCCCCCCCCCCC1=C(O)C(=O)C=C(O)C1=O [EMBELIN]
Activity (Hepatitis B virus [7]): 62%

Structure (SMILES): CCCCCCCC/C=C\CCCCCCCC(=O)NCCc1ccc(O)c(O)c1 [OLEOYL DOPAMINE]
EC50 (Hepatitis B virus [16]): 130 nM
IC50 [17]: 410 nM
IC50 (Hepatitis B virus [18]): 100 nM
CC50 [19]: 900 nM

Structure (SMILES): Oc1cc(O)cc(/C=C/c2ccc(O)c(O)c2)c1 [PICEATANNOL]
EC50 (Hepatitis B virus [20]): 96200 nM

Structure (SMILES): O=c1ccc2cc3ccoc3cc2o1 [PSORALEN]
Activity (Hepatitis B virus [7]): 62%

Structure (SMILES): O=c1c(O)c(-c2ccc(O)c(O)c2)oc2cc(O)cc(O)c12 [QUERCETIN]
Activity (Hepatitis B virus [7]): 62%

Structure (SMILES): O=C(/C=C/c1ccc(O)c(O)c1)O[C@H](Cc1ccc(O)c(O)c1)C(=O)O [ROSMARINIC ACID]
EC50 (Hepatitis B virus [21]): 30000 nM

Structure (SMILES): O=C(/C=C/c1ccc(O)c(O)c1/C=C/c1ccc(O)c(O)c1)O[C@H](Cc1ccc(O)c(O)c1)C(=O)O [SALVIANOLIC ACID A]
CC50 (HepG2 [8]): 86000 nM

Structure (SMILES): Cc1ccc(C(=O)Nc2ccc(S(=O)(=O)O)c3cc(S(=O)(=O)O)cc(S(=O)(=O)O)c23)cc1NC(=O)c1cccc(NC(=O)Nc2cccc(C(=O)Nc3cc(C(=O)Nc4ccc(S(=O)(=O)O)c5cc(S(=O)(=O)O)cc(S(=O)(=O)O)c45)ccc3C)c2)c1 [SURAMIN]
CC50 [22]: 168000 nM
IC50 (Hepatitis B virus [23]): 270 nM
CC50 [24]: 200000 nM

Results, then the molecule that gave them:

EC50 (Hepatitis B virus [1]): 110 nM
Structure (SMILES): COc1ccccc1CON=C(C)c1c(C)cc(=O)n(O)c1O

EC50 (Hepatitis B virus [1]): 110 nM
Structure (SMILES): COc1ccc(CON=C(C)c2c(C)cc(=O)n(O)c2O)cc1

EC50 (Hepatitis B virus [2]): 690 nM
Structure (SMILES): COC(=O)C1C(=O)N(O)C(=O)c2ccccc21 (configuration not stated)

EC50 (Hepatitis B virus [1]): 110 nM
Structure (SMILES): CC(=NOc1ccc(F)cc1)c1c(C)cc(=O)n(O)c1O

EC50 (Hepatitis B virus [1]): 2400 nM
Structure (SMILES): CCNC(=O)C1C(=O)N(O)C(=O)c2ccc(OC)nc21 (configuration not stated)

EC50 (Hepatitis B virus [1]): 2400 nM
Structure (SMILES): O=C(NCc1ccc(F)cc1)C1C(=O)N(O)C(=O)c2ccc(O)nc21 (configuration not stated)

EC50 (Hepatitis B virus [2]): 690 nM
Structure (SMILES): Cc1ccc(CNC(=O)C2C(=O)N(O)C(=O)c3cc(NC(=O)c4ccccc4)ccc32)cc1 (configuration not stated)

EC50 (Hepatitis B virus [2]): 690 nM
Structure (SMILES): COc1ccc(CNC(=O)C2C(=O)N(O)C(=O)c3cc([N+](=O)[O-])ccc32)cc1 (configuration not stated)

EC50 (Hepatitis B virus [1]): 110 nM
Structure (SMILES): CC(=NOCc1ccc(F)cc1)c1c(C)cc(=O)n(O)c1O

EC50 (Hepatitis B virus [1]): 110 nM
Structure (SMILES): CC(=NOCc1ccc(C)cc1)c1c(C)cc(=O)n(O)c1O
